The values below come from patent publication US20140127231A1, “p38 MAPK Pathway Inhibitors as Female-Specific Therapeutics” (UNIVERSITY OF VERMONT, priority 2012, published 2014).

“Also recorded” adds a separate entry of the source.

For experiment [1], the system named is experimental autoimmune encephalomyelitis (EAE). The experiment in a line: Active EAE, 2×MOG35-55+CFA, clinical course (Example 1/2). The class given is in vivo, C57BL/6J (B6) mice. Conditions: for Clinical EAE course: daily treatment from D0, 5 mg/kg/d IP. As to the method: EAE was induced in female C57BL/6J mice as described previously (Noubade et al., 2007, J Clin Invest., 117(11):3507-3518). Mice were injected subcutaneously with an emulsion containing 200 μg of MOG35-55 peptide ([…] (SEQ ID NO: 1) and complete Freund adjuvant (CFA; Sigma-Aldrich) supplemented with 200 μg of Mycobacterium tuberculosis H37RA (Difco Laboratories) in the posterior right and left flank; 1 week later, all mice were similarly injected at 2 sites on the right and left flank anterior of the initial injection sites (2×MOG35-55+CFA). Mice received 5 mg/kg/d SB203580 dihydrochloride (Tocris) by IP injection in a total volume of 200 μL or an equal volume of carrier every day from the day of immunization.
EAE was induced in B10.BR, MKK6-Tg, and dn-p38-Tg mice by immunizing with a single injection of 200 μg of MOG97-114 (TCFFRDHSYQEEAAVELK (SEQ ID NO: 2)) or PLP180-209 ([…] (SEQ ID NO: 3)) in CFA. Immediately thereafter, each animal received 200 ng of PTX (List Biologic Laboratories) by IV injection. Mice were scored daily starting at day 10 after injection as previously described (Noubade et al., 2007, J Clin Invest., 117(11):3507-3518). Clinical quantitative trait variables were generated as previously described (Butterfield et al., 1998, J Immunol., 161(4):1860-1867).
Age-matched male and female C57BL/6J (B6) mice were treated with the p38 MAPK inhibitor SB203580 (SB) starting at the time of immunization for the induction of EAE with myelin oligodendrocyte glycoprotein peptide 35-55 (MOG35-55) and complete Freund's adjuvant (CFA). Clinical EAE course in male and female B6 mice immunized with 2×MOG35-55-CFA treated daily with either carrier or SB starting on D0. […] In separate experiments, Clinical EAE course in female B6 mice immunized with 2×MOG35-55-CFA and randomly selected for daily treatment with either carrier or SB upon reaching a clinical score≧1. It was observed that disease progression could also be halted in female mice if the inhibitor was administered at the first onset of clinical signs (FIG. 1B).

The test system is the same in experiment [2]. The experiment in a line: Active EAE, 2×MOG35-55/CFA protocol, clinical course (Example 3). The class given is in vivo, C57BL/6J (B6) mice. As to conditions: 5 mg/kg/day i.p. daily from day of immunization; for EAE disease course: 5 mg/kg/day. The procedure: Female (FIG. 15A) and male (FIG. 15B) B6 mice were immunized using the 2×MOG35-55/CFA protocol, followed by daily injections of SB203580 or carrier. Data represent 2 independent experiments, pooled. Data were analyzed as indicated in Materials and Methods. […] For individual time points, * ≦0.05; ** ≦0.01, *** ≦0.001, **** ≦0.0001. Numbers in parentheses indicate the total number of animals studied.
EAE was induced essentially as described previously (Noubade R, et al., J Clin Invest. 2007 November; 117(11):3507-18). Briefly, mice were injected s.c. with an emulsion containing 100 μg of MOG35-55 peptide ([…]; SEQ ID NO: 1) (Anaspec, USA) and complete Freund's adjuvant (CFA) (Sigma-Aldrich, St. Louis, Mo.) supplemented with 200 μg of Mycobacterium tuberculosis H37Ra (Difco Laboratories, Detroit, Mich.) in the posterior right and left flanks. One week later all mice were similarly injected at two sites on the right and left flank anterior of the initial injection sites (2×MOG35-55/CFA). Alternatively, mice were immunized with 200 μg of MOG35-55 in CFA, followed by i.v. administration of 200 ng pertussis toxin (List Biological) (1×MOG35-55/CFA/PTX). In some experiments (as indicated), mice received 5 mg/kg/day of SB203580 dihydrochloride (Tocris, Ellisville, Mo.) by i.p. injection in a total volume of 200 μl or an equal volume of carrier daily starting on the day of immunization. Mice were scored daily starting at day 10 post-injection as previously described (Noubade R, et al., J Clin Invest. 2007 November; 117(11):3507-18). Passive EAE was induced as follows. […]
All statistical analyses were performed using GraphPad Prism 6 software (GraphPad Software Inc, San Diego, Calif.). The significance of differences in cytokine production and flow cytometry data were determined using 2-way ANOVA. The significance of differences observed in clinical course of EAE was determined by 2-way ANOVA and post-hoc analysis using Fisher's LSD test for individual time points (significance indicated by “*” above each time point). […] EAE data from replicate experiments were analyzed by heterogeneity testing. […]

[3] abbreviates: female B6 mice, treatment from D0 stopped after 30 days.

For `C[S+]([O-])c1ccc(-c2nc(-c3ccncc3)c(-c3ccc(F)cc3)[nH]2)cc1` (stereo not shown) [SB203580], the “Clinical EAE course” value in experiment [1] (female B6 mice) was “female-specific therapy for EAE; also recorded: ameliorated EAE”; in experiment [1] (female B6 mice, listed as SB), “fully prevented disease; also recorded: completely inhibits EAE”; in experiment [1] (male B6 mice, listed as SB), “completely unresponsive”. Besides, in experiment [1] (female B6 mice, daily treatment started upon reaching clinical score ≧1), the “Disease progression (clinical EAE course)” value is “halted”. Also, the “Disease severity on readministration” value in experiment [1] (female B6 mice, re-treated from D41 thru D60) was “modest reduction and stabilization of their disease severity”. In addition, the “EAE severity reached after discontinuing treatment” value in experiment [1] (setting [3]) is “equivalent severity to those seen in carrier-treated mice”. In experiment [1] (setting [3]), the “Time to appearance of clinical signs of EAE after discontinuing treatment” value fell in the range of 2 to 3 days. The EAE disease course result in experiment [2] (female B6 mice) is recorded as “robustly ameliorated; also recorded: significant difference in EAE course”; in experiment [2] (male B6 mice) it was “showed no therapeutic efficacy; also recorded: augmented; also recorded: did not reduce EAE”. For the same compound, in experiment [2] (male B6 mice), the EAE onset result is on record as “accelerated”.
